The values below come from patent US7354938B2, “Pyrazole compounds and uses related thereto” (Amgen Inc., priority 2004, dated 2008).

The target of this experiment is T1, human HSD1 (recombinant HSD1) (Homo sapiens, UniProt P28845).
T1 construct: made in house
T1 sequence (P28845 whole entry): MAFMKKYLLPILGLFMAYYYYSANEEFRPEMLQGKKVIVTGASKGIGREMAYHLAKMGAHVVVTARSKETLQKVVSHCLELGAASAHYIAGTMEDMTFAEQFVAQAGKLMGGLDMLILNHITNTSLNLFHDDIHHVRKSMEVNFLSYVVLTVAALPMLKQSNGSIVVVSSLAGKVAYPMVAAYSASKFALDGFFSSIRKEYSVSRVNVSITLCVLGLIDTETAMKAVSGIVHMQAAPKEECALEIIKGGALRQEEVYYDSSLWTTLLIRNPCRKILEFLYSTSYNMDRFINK
In words: In vitro HSD1 activity inhibitory action (SPA, conversion of cortisone to cortisol). The following applies: recombinant human HSD1 expressed in baculo-virus system, 16 nM 3H cortisone, 500 μM NADPH, room temperature, 90 min. Format: biochemical. The protocol:
In Vitro HSD1 (Hydroxysteroid Dehydrogenase 1) Activity Inhibitory Action
The HSD1 inhibitory activity was examined by quantitative determination by an SPA (scintillation proximity assay) system of the suppressive action on the conversion from cortisone to cortisol using human HSD1 (hereinafter recombinant HSD1) expressed using a baculo-virus system as an enzyme source. For the reaction, a reagent was added to a 96 well plate (96 well Opti-plates™-96 (Packard)) to the following final concentration and a volume of 100 μl was reacted at room temperature for 90 min. The reaction solution used was 0.1 μg/mL recombinant HSD1,500 μM NADPH, 16 nM ^3H cortisone (Amersham Biosciences, 1.78 Tbq/mol) dissolved in 0.1% BSA (Sigma)-containing PBS and the test drug was 2 μl of a compound solution (dissolved in DMSO). After 90 min, the reaction was stopped by adding PBS (40 μl, containing 0.1% BSA (Sigma)) containing 0.08 μg of anti-cortisol mouse monoclonal antibody (East Coast Biologics), 365 μg SPA PVT mouse antibody-binding beads (Amersham Biosciences) and 175 μM carbenoxolone (Sigma) to the reaction solution. After the completion of the reaction, the plate was incubated overnight at room temperature and the radioactivity was measured by Topcount (Packard). For control, the value (0% inhibition) of the well containing 2 μl of DMSO instead of the test drug was used, and for positive control, the value (100% inhibition) of the well containing carbenoxolone instead of the test drug at the final concentration of 50 μM was used. The inhibition (%) of the test drug was calculated by ((value of control−value of test drug)/(value of control−value of positive control))×100 (%). The IC50 value was analyzed using a computer-based curve fitting soft.
For orientation: IC50 means the concentration at which inhibition is half-maximal. As for `Cc1c(-c2ccc(Cl)cc2Cl)n[nH]c1C1(c2ccccc2)CC1` [Ex. 1-1, 3-(2,4-dichlorophenyl)-4-methyl-5-((1-phenylcyclopropane)-1-yl)-pyrazole], the concentration for half-maximal inhibition (IC50) was below 10 nM.
The figure for `Clc1ccc(-c2cc(CCc3ccccc3Cl)n[nH]2)c(Cl)c1` [Ex. 1-2] is 10 to 1000 nM; for `Cc1c(CCc2ccccc2Cl)n[nH]c1-c1ccc(Cl)cc1Cl` [Ex. 1-3] it is below 10 nM; for `CCOC(=O)c1c(-c2ccc(Cl)cc2Cl)n[nH]c1C1(c2ccccc2)CC1` [Ex. 1-4] it is 10 to 1000 nM.
`Clc1ccc(-c2cc(C3(c4ccccc4)CC3)[nH]n2)c(Cl)c1` [Ex. 1-5]: the IC50 lay in the range of 10 to 1000 nM.
With `OCc1c(-c2ccc(Cl)cc2Cl)n[nH]c1Cc1ccc(F)cc1` [Ex. 1-8], the IC50 fell in the range of 10 to 1000 nM.
The figure for `Cc1c(-c2ccc(Cl)cc2Cl)n[nH]c1Cc1ccc(F)cc1` [Ex. 1-9] is 10 to 1000 nM; for `Cc1c(C2CCN(c3c(Cl)cncc3Cl)CC2)n[nH]c1C1(c2ccccc2)CC1` [Ex. 1-10] it is 10 to 1000 nM; for `Cc1c(C2CCN(c3ncccc3Cl)CC2)n[nH]c1C1(c2ccccc2)CC1` [Ex. 1-11] it is below 10 nM.
Take `CC(C)c1c(-c2ccccc2)n[nH]c1C1(c2ccc(F)cc2)CC1` [Ex. 1-12]: the IC50 is below 10 nM.
The figure for `Cc1c(-c2ccccc2)n[nH]c1C1(c2ccc(F)cc2)CC1` [Ex. 1-13] is below 10 nM; for `Cc1c(-c2ccc(N3CCOC3=O)cc2Cl)n[nH]c1C1(c2ccccc2)CC1` [Ex. 1-14] it is 10 to 1000 nM; for `Cc1c(-c2ccccn2)n[nH]c1C1(c2ccc(F)cc2)CC1` [Ex. 1-15] it is below 10 nM.
The figure for `Cc1c(C2(c3ccc(F)cc3)CC2)n[nH]c1C1(c2ccc(F)cc2)CC1` [Ex. 1-16] is below 10 nM.
